Experiments:
[1] = fu,cell by equilibrium dialysis of cell homogenate, HEK293; type: in vitro ADME; conditions: human, dialysis 4 h 37°C, 10 million cells/mL homogenate, read-out: fu,HEK293 Geomean
Protocol: (§1) fu,cell was measured in cassette-mode as previously described with minor modifications ([9]). Briefly, 10 million cells/mL were suspended in HBSS buffered with 10 mM HEPES and homogenized on ice by sonication (VCX 750 Sonicator, 3 mm probe, 20% intensity, 10 s). Up to 8 compounds were combined randomly and spiked into the homogenate for a final concentration of 0.5 μM. Equilibrium dialysis was performed in a Rapid Equilibirum device (Thermo Fisher Scientific) against blank HBSS buffered with 10 mM HEPES, for 4 h at 37°C on an orbital shaker at 900 rpm. Stability controls were kept at 4° and 37°C for the duration of the experiment. The concentration in both dialysis chambers was quantified by extracting the compound with acetonitrile/water (60/40) containing internal standard. Matrixes were matched with blank buffer or cell homogenate, respectively. LC-MS/MS parameters are available in Table S9. All experiments were carried out in triplicates and at least at two independent occasions.
(§2) The unbound fraction in the cell homogenate (fu,hom) was determined according to Eq. (1):1 fu,hom=Cbuffer/Chom and the fraction of unbound compound in the cell (fu,cell) was calculated by correcting for homogenate dilution according to Eq. (2):2 fu,cell=1/DP∙1/fu,hom−1+1 where the dilution constant DP was calculated using Eq. (3), assuming the Vcell to be equal to 6.5 μL/mg protein ([6],[10]). Protein content in the cell homogenates was determined at each experiment using the BCA Protein Assay Reagent Kit (Thermo Fisher Scientific Inc.).3 DP=1/Vcell

[2] = fu,cell by equilibrium dialysis of cell homogenate, HL60; type: in vitro ADME; conditions: human, dialysis 4 h 37°C, 10 million cells/mL homogenate, read-out: fu,HL60 Geomean
Protocol: as §1, §2

[3] = fu,cell by equilibrium dialysis of cell homogenate, Caco-2; type: in vitro ADME; conditions: human, Caco-2 cell homogenate, dialysis 4 h 37°C, 10 million cells/mL homogenate, read-out: fu,Caco-2 Geomean
Protocol: as §1
(§3) (3), assuming the Vcell to be equal to 6.5 μL/mg protein ([6],[10]). Protein content in the cell homogenates was determined at each experiment using the BCA Protein Assay Reagent Kit (Thermo Fisher Scientific Inc.).3 DP=1/Vcell

[4] = fu,cell by equilibrium dialysis of cell homogenate, LLC-PK1; type: in vitro ADME; conditions: pig, dialysis 4 h 37°C, 10 million cells/mL homogenate, read-out: fu,LLCPK1 Geomean
Protocol: as §1, §2

[5] = fu,cell by equilibrium dialysis of cell homogenate, A549; type: in vitro ADME; conditions: human, dialysis 4 h 37°C, 10 million cells/mL homogenate, read-out: fu,A549 Geomean
Protocol: as §1, §2

[6] = fu,cell by equilibrium dialysis of cell homogenate, K562; type: in vitro ADME; conditions: human, dialysis 4 h 37°C, 10 million cells/mL homogenate, read-out: fu,K562 Geomean
Protocol: as §1, §2

[7] = fu,cell by equilibrium dialysis of cell homogenate, MDCK; type: in vitro ADME; conditions: dog, dialysis 4 h 37°C, 10 million cells/mL homogenate, read-out: fu,MDCK Geomean
Protocol: as §1, §3

[8] = fu,cell by equilibrium dialysis of cell homogenate, primary human hepatocytes; type: in vitro ADME; conditions: primary human hepatocyte homogenate, dialysis 4 h 37°C, 10 million cells/mL homogenate, read-out: fu,HH Geomean
Protocol: as §1, §2

[9] = fu,PL from membrane affinity to PL-covered silica beads, PC; type: in vitro ADME; conditions: beads coated with pure PC, 15 min incubation; for fraction unbound at 15 min: silica beads covered with phosphatidylcholine (PC), Transil, read-out: fu,PC Geomean
Protocol: (§4) f u,PL was derived from membrane affinity measurements to beads covered with PLs as previously described ([6]).
(§5) Cbuffer was quantified by LC-MS/MS in samples of the supernatant that was obtained after 15 min incubation time on an orbital shaker at 1000 rpm and subsequent separation from the beads by centrifugation at 750 x g. […] Unspecific binding was evaluated by incubations into wells without added lipids.

[10] = fu,PL from membrane affinity to PL-covered silica beads, PS; type: in vitro ADME; conditions: silica beads covered with phosphatidylserine (PS), Transil; beads coated with pure PS, 15 min incubation; read-out: fu,PS Geomean
Protocol: as §4, §5

[11] = fu,PL from membrane affinity to PL-covered silica beads, PE; type: in vitro ADME; conditions: beads coated with pure PE, 15 min incubation; read-out: fu,PE Geomean
Protocol: as §4, §5

[12] = fu,PL from membrane affinity to PL-covered silica beads, mixed beads; type: in vitro ADME; conditions: mixed beads PC:PE:PS:PI 52:22:12:14 mol%, 15 min incubation; read-out: fu,mixed bead Geomean
Protocol: as §4, §5

[13] = system: cell types of the study; conditions: contributions from several PL subspecies combined (Fig. 5b)

Row | fraction unbound at 4 h, 0.5 μM [1] | fraction unbound at 4 h, 0.5 μM [2] | fraction unbound at 4 h, 0.5 μM [3] | fraction unbound at 4 h, 0.5 μM [4] | fraction unbound at 4 h, 0.5 μM [5] | fraction unbound at 4 h, 0.5 μM [6] | fraction unbound at 4 h, 0.5 μM [7] | fraction unbound at 4 h, 0.5 μM [8] | fraction unbound at 15 min [9] | fraction unbound at 15 min [10] | fraction unbound at 15 min [11] | fraction unbound at 15 min [12] | SMILES | fu,PC Geomean [9] | predicted versus measured fu,cell [13]
1 | 0.463 | 0.223 | 0.181 | 0.238 | 0.232 | 0.419 | 0.255 | 0.161 | 0.0203 | 0.0154 | 0.0131 | 0.0237 | COc1ccc2[nH]c([S+]([O-])Cc3ncc(C)c(OC)c3C)nc2c1 (centres unmarked) [Omeprazole] | – | –
2 | 0.0208 | 0.0438 | 0.0118 | 0.0078 | 0.0085 | 0.0348 | 0.0215 | 0.0014 | 0.0005 | 0.0006 | 0.0019 | 0.0004 | Nc1ccc(/N=N/c2ccccc2)c(N)n1 [Phenazopyridine] | – | –
3 | 0.0312 | 0.0341 | 0.0225 | 0.0305 | 0.0254 | 0.0385 | 0.0269 | 0.0097 | 0.0114 | 0.0084 | 0.0039 | 0.0095 | CCOc1cc(CC(=O)N[C@@H](CC(C)C)c2ccccc2N2CCCCC2)ccc1C(=O)O [Repaglinide] | – | consistently over-predicted

Row | SMILES | fraction unbound at 4 h, 0.5 μM [1] | fraction unbound at 4 h, 0.5 μM [2] | fraction unbound at 4 h, 0.5 μM [3] | fraction unbound at 4 h, 0.5 μM [4] | fraction unbound at 4 h, 0.5 μM [5] | fraction unbound at 4 h, 0.5 μM [6] | fraction unbound at 4 h, 0.5 μM [7] | fraction unbound at 4 h, 0.5 μM [8] | fraction unbound at 15 min [9] | fraction unbound at 15 min [10] | fraction unbound at 15 min [11] | fraction unbound at 15 min [12] | fu,PC Geomean [9] | predicted versus measured fu,cell [13]
4 | CCN(CC)CCCC(C)Nc1c2ccc(Cl)cc2nc2ccc(OC)cc12 (centres unmarked) [Quinacrine] | 0.0075 | – | – | 0.0008 | 0.0009 | 0.0164 | 0.0036 | 0.0066 | – | 0.001 | – | 0.0029 | 0.0002 | consistently over-predicted

Source: publication PMC6838048, “A Cell-Free Approach Based on Phospholipid Characterization for Determination of the Cell Specific Unbound Drug Fraction (fu,cell)” (Pharmaceutical Research, 2019)
